Data reported in ChEMBL document CHEMBL3232889, “Identification of novel SIRT2-selective inhibitors using a click chemistry approach” (Bioorg Med Chem Lett, 2014).
Calls of active or inactive are those of the source.

The molecules below were run against T1, NAD-dependent protein deacetylase sirtuin-2 (Homo sapiens, UniProt Q8IXJ6) (assay: Inhibition of human recombinant SIRT2 using Fluor-de-Lys as substrate incubated for 60 mins prior to substrate addition measured after 60 mins by fluorometric analysis). Details: not given.
T1 sequence (Q8IXJ6 whole entry): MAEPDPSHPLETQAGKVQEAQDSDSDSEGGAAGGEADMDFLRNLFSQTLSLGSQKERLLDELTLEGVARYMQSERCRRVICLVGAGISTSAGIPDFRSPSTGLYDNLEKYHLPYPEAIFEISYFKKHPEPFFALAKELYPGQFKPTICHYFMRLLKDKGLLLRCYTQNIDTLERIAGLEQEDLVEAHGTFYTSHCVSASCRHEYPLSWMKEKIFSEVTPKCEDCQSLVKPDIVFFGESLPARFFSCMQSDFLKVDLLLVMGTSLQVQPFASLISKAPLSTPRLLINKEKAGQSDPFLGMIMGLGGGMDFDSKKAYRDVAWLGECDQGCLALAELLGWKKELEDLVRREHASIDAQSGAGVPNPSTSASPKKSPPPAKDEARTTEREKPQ
For NC(=O)c1ccccc1Nc1cccc(-c2cn(CCC3CCCC3)nn2)c1, the IC50 was 5.3 µM.
Work on NC(=O)c1ccccc1Nc1ccc(-c2cn(Cc3ccccc3)nn2)cc1 yielded an IC50 of 6.3 µM.

What follows are molecules tested against T2, NAD-dependent protein deacetylase sirtuin-3, mitochondrial (Homo sapiens) (UniProt Q9NTG7) (assay: Inhibition of human recombinant SIRT3 using Fluor-de-Lys as substrate at 10 uM incubated for 60 mins prior to substrate addition measured after 60 mins by fluorometric analysis). Details: not given.
T2 sequence (whole entry): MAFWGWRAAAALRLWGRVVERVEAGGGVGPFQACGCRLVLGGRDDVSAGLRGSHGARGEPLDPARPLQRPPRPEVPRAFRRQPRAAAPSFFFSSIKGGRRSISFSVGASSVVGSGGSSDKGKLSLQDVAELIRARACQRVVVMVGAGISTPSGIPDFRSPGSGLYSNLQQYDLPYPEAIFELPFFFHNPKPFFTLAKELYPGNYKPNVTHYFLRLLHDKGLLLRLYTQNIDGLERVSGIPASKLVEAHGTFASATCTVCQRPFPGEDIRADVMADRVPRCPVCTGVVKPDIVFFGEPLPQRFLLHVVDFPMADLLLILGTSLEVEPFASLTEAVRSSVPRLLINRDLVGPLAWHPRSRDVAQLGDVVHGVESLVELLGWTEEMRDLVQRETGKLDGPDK
For NC(=O)c1ccccc1Nc1cccc(-c2cn(CCC3CCCC3)nn2)c1, the inhibition was “inactive”.
With NC(=O)c1ccccc1Nc1ccc(-c2cn(Cc3ccccc3)nn2)cc1 the inhibition was “inactive”.

What follows are molecules tested against T3, NAD-dependent protein deacetylase sirtuin-3, mitochondrial (Homo sapiens, UniProt Q9NTG7) (assay: Inhibition of human recombinant SIRT3 using Fluor-de-Lys as substrate incubated for 60 mins prior to substrate addition measured after 60 mins by fluorometric analysis). Details: not given.
T3 sequence (Q9NTG7 whole entry): T2 sequence (whole entry)
For NC(=O)c1ccccc1Nc1cccc(-c2cn(CCC3CCCC3)nn2)c1, the IC50 was > 100 µM.
With NC(=O)c1ccccc1Nc1ccc(-c2cn(Cc3ccccc3)nn2)cc1 the IC50 was > 100 µM.

The molecules below were run against T4, NAD-dependent protein deacetylase sirtuin-2 (Homo sapiens) (UniProt Q8IXJ6). Details: at 10 µM.
T4 sequence (whole entry): T1 sequence (Q8IXJ6 whole entry)
Description: Inhibition of human recombinant SIRT2 using Fluor-de-Lys as substrate at 10 uM incubated for 60 mins prior to substrate addition measured after 60 mins by fluorometric analysis
[N-]=[N+]=NCCc1ccccc1Cl was tested, and the inhibition was “Active”.
In the case of [N-]=[N+]=NCCc1ccccn1, the inhibition is reported as “Active”.
In the case of [N-]=[N+]=NCCc1cccc(C(F)(F)F)c1, the inhibition is reported as “Active”.
[N-]=[N+]=NCCc1cccc(F)c1 was tested, and the inhibition was “Active”.
In the case of COc1ccccc1CCN=[N+]=[N-], the inhibition is reported as “Active”.
With Cc1ccccc1CCN=[N+]=[N-] the inhibition was “Active”.
In the case of [N-]=[N+]=NCCc1ccc(Cl)cc1, the inhibition is reported as “Active”.
With [N-]=[N+]=NCCC1CCCCC1 the inhibition was “Active”.
With [N-]=[N+]=NCc1ccccc1 the inhibition was “Active”.
In the case of [N-]=[N+]=NCc1cccc2ccccc12, the inhibition is reported as “Active”.
With [N-]=[N+]=NCC(=O)Nc1ccc(F)cc1 the inhibition was “Active”.
[N-]=[N+]=Nc1ccc(Br)cc1 was tested, and the inhibition was “Active”.
In the case of [N-]=[N+]=NCc1ccc2ccccc2c1, the inhibition is reported as “Active”.
With [N-]=[N+]=NCCc1ccc(F)cc1 the inhibition was “Active”.
With [N-]=[N+]=NCCc1cccc2ccccc12 the inhibition was “Active”.
In the case of [N-]=[N+]=Nc1ccc(O)cc1, the inhibition is reported as “Active”.
With Cc1ccc(N=[N+]=[N-])cc1 the inhibition was “Active”.
For [N-]=[N+]=NCCc1c[nH]c2ccccc12, the inhibition was “Active”.
In the case of [N-]=[N+]=NCCc1ccccc1[N+](=O)[O-], the inhibition is reported as “Active”.
[N-]=[N+]=NCCc1ccc(C(F)(F)F)cc1 was tested, and the inhibition was “Active”.
With [N-]=[N+]=NCCc1ccc2ccccc2c1 the inhibition was “Active”.
In the case of [N-]=[N+]=Nc1ccccc1, the inhibition is reported as “Active”.
[N-]=[N+]=NC[S+]([O-])c1ccccc1 (stereo unspecified) was tested, and the inhibition was “Active”.
[N-]=[N+]=NCC1CCCCC1 was tested, and the inhibition was “Active”.
With N#C/C(=C\c1ccc(-c2cc(Cl)ccc2Cl)o1)C(=O)Nc1cccc2ncccc12 the inhibition was “Active”.
COc1ccc(CCN=[N+]=[N-])cc1 was tested, and the inhibition was “Active”.
[N-]=[N+]=Nc1ccc(F)cc1 was tested, and the inhibition was “Active”.
With Cc1ccc(CCN=[N+]=[N-])cc1 the inhibition was “Active”.
[N-]=[N+]=NCc1ccc(-c2ccccc2)cc1 was tested, and the inhibition was “Active”.
For [N-]=[N+]=N/C=C/c1ccccc1, the inhibition was “Active”.
[N-]=[N+]=NCCc1ccccc1C(F)(F)F was tested, and the inhibition was “Active”.
For COc1ccc(CN=[N+]=[N-])cc1, the inhibition was “Active”.
For Cc1ccc(N=[N+]=[N-])cc1C, the inhibition was “Active”.
[N-]=[N+]=Nc1ccc(I)cc1 was tested, and the inhibition was “Active”.
In the case of NC(=O)c1ccccc1Nc1cccc(-c2cn(CCC3CCCC3)nn2)c1, the inhibition is reported as “Active”.
With Cc1cccc(C)c1NC(=O)CN=[N+]=[N-] the inhibition was “Active”.
In the case of [N-]=[N+]=Nc1ccccc1-c1ccccc1, the inhibition is reported as “Active”.
Cc1ncsc1CCN=[N+]=[N-] was tested, and the inhibition was “Active”.
For [N-]=[N+]=Nc1ccc(N)cc1, the inhibition was “Active”.
With [N-]=[N+]=Nc1cccc2ccccc12 the inhibition was “Active”.
In the case of [N-]=[N+]=NCCc1ccsc1, the inhibition is reported as “Active”.
For [N-]=[N+]=NCCCCCc1ccccc1, the inhibition was “Active”.
In the case of [N-]=[N+]=NCCc1ccccc1F, the inhibition is reported as “Active”.
In the case of [N-]=[N+]=NCCc1ccccc1, the inhibition is reported as “Active”.
In the case of [N-]=[N+]=NCCc1cccc(Cl)c1, the inhibition is reported as “Active”.
NC(=O)c1ccccc1Nc1ccc(-c2cn(Cc3ccccc3)nn2)cc1 was tested, and the inhibition was “Active”.
With C#Cc1ccc(Nc2ccccc2C(N)=O)cc1 the inhibition was “Active”.
For Cc1cccc(CCN=[N+]=[N-])c1, the inhibition was “Active”.
[N-]=[N+]=NCCCc1ccccc1 was tested, and the inhibition was “Active”.
In the case of COc1cccc(CCN=[N+]=[N-])c1, the inhibition is reported as “Active”.
[N-]=[N+]=NCC12CC3CC(CC(C3)C1)C2 was tested, and the inhibition was “Active”.
With [N-]=[N+]=NCSc1ccccc1 the inhibition was “Active”.
[N-]=[N+]=NCC(=O)c1ccccc1 was tested, and the inhibition was “Active”.
With [N-]=[N+]=NCc1cccc(-c2ccccc2)c1 the inhibition was “Active”.
COc1ccc(N=[N+]=[N-])cc1 was tested, and the inhibition was “Active”.
In the case of [N-]=[N+]=NCCc1ccc([N+](=O)[O-])cc1, the inhibition is reported as “Active”.
For C#Cc1cccc(Nc2ccccc2C(N)=O)c1, the inhibition was “Active”.
For [N-]=[N+]=NCCC1CCCC1, the inhibition was “Active”.
For [N-]=[N+]=NCCC12CC3CC(CC(C3)C1)C2, the inhibition was “Active”.
In the case of [N-]=[N+]=NCCN1CCOCC1, the inhibition is reported as “Active”.
With [N-]=[N+]=NCS(=O)(=O)c1ccccc1 the inhibition was “Active”.

Each molecule was assayed against T5, NAD-dependent protein deacetylase sirtuin-1 (Homo sapiens) (UniProt Q96EB6) (assay: Inhibition of human recombinant SIRT1 using Fluor-de-Lys as substrate at 10 uM incubated for 60 mins prior to substrate addition measured after 60 mins by fluorometric analysis). Details: not given.
T5 sequence (whole entry): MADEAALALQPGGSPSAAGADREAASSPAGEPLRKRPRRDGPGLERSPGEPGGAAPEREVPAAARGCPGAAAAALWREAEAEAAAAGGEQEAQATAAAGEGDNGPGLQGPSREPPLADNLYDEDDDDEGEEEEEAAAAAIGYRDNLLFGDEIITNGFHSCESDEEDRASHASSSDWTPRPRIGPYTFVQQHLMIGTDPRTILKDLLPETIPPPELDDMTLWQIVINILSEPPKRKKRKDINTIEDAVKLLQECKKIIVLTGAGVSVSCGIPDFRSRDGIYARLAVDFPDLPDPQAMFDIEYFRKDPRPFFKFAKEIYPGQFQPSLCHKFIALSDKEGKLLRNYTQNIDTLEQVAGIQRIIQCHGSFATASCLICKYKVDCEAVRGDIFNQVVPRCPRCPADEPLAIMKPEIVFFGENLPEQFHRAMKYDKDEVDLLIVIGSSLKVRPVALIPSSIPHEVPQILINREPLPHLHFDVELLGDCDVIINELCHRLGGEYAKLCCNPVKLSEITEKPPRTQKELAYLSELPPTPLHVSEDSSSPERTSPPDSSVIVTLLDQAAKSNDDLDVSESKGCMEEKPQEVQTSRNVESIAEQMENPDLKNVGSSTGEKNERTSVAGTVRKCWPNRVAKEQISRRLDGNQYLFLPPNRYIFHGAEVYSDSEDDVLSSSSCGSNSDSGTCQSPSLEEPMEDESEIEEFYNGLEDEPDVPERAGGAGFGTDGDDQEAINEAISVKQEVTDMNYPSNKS
In the case of NC(=O)c1ccccc1Nc1cccc(-c2cn(CCC3CCCC3)nn2)c1, the inhibition is reported as “inactive”.
NC(=O)c1ccccc1Nc1ccc(-c2cn(Cc3ccccc3)nn2)cc1 was tested, and the inhibition was “inactive”.

The molecules below were run against T6, NAD-dependent protein deacetylase sirtuin-1 (Homo sapiens, UniProt Q96EB6) (assay: Inhibition of human recombinant SIRT1 using Fluor-de-Lys as substrate incubated for 60 mins prior to substrate addition measured after 60 mins by fluorometric analysis). Details: not given.
T6 sequence (Q96EB6 whole entry): T5 sequence (whole entry)
For NC(=O)c1ccccc1Nc1cccc(-c2cn(CCC3CCCC3)nn2)c1, the IC50 was > 100 µM.
With NC(=O)c1ccccc1Nc1ccc(-c2cn(Cc3ccccc3)nn2)cc1 the IC50 was > 100 µM.
